Values of other authors, collected in patent US7749547B2, “Nutritional composition and method for increasing creatine uptake and retention in skeletal muscle, increasing muscle mass and strength, increasing exercise capacity and for aiding recovery following exercise” (priority 2006, dated 2010).

Columns and labels:
[1] = supplemented rats
[2] = rodents; reduced food intake, enhanced energy expenditure
[3] = supplementation
[4] = not given; remark: listed apart in the source
[5] = healthy volunteers

O=C(O)CCCCC1CCSS1 (stereo not drawn) [ALA, Alpha Lipoic Acid]
age-related changes in mitochondrial function, accumulated oxidative damage and metabolic rate [1]: improved
body weight [2]: profound weight loss

[Cr] [Chromium]
lean mass (clinical): increase lean mass
body fat (combined with exercise): reduce body fat
high density lipoproteins (HDL) (human, in vivo): increase high density lipoproteins

CN(CC(=O)O)C(=N)N [Creatine, N-methyl-N-guanyl Glycine]
concentration of Creatine in the muscle [3]: increase the concentration of Creatine in the muscle
resynthesis of Phosphocreatine [3]: increase in the resynthesis of Phosphocreatine
high-intensity exercise performance ([4]; males and females): improved
strength and fatigue ([4]; supplemental Creatine): improve strength and reduce fatigue
muscle fiber cross sectional area ([4]; supplementation): increases muscle fiber cross sectional area
strength and fat-free mass ([4]; with resistance training, sedentary females and male football players): increased strength and fat-free mass over a placebo

Isomalt
bowel function and metabolic function [5]: promote healthy bowel function without impairing metabolic function
